{"source": "patent EP2999467B1", "about": "“USE OF A COMBINATION OF TWO COMPOUNDS FOR THE TREATMENT AND/OR PREVENTION OF BONE DISORDERS” (Institut National de la Recherche Agronomique (INRA), priority 2013, dated 2014)", "key": {"ostéocalcine": {"test_system": "ostéocalcine", "test": "Quantitative RT-PCR, osteoblast differentiation marker: osteocalcin", "type": "cell-based, rats Wistar", "settings": "Rattus norvegicus; for activation at 5 µM: AA+βGP+Fisétine 5µM", "description": "(§1) Les préostéoblastes primaires ont été isolés à partir de la calotte crânienne de rats Wistar nouveaux-nés par digestion enzymatique comme précédemment décrit [Declercq, H., Van den Vreken, N., De Maeyer, E., Verbeeck, R., Schacht, E., De Ridder, L., and Cornelissen, M. (2004). Isolation, proliferation and differentiation of osteoblastic cells to study cell/biomaterial interactions: comparison of different isolation techniques and source. Biomaterials 25, 757-68.]. Les précurseurs d'ostéoclastes RAW264.7 ont été obtenus auprès de l'ATCC (Manassas, VA, USA). Les préostéoblastes et les RAW264.7 ont été cultivés dans du milieu α-MEM (Invitrogen, Carlsbad, CA, USA) supplémenté avec 10% de SVF décomplémenté et de 100 unités/ml de pénicilline-streptomycine.\nL'extraction des ARN totaux (cellules et fémurs) a été effectuée en utilisant le réactif TRIzol, la transcription inverse (RT) a été réalisée à l'aide du kit de synthèse d'ADNc Dynamo (Thermo Scientific, Waltham, MA, USA) et l'analyse PCR en temps réel a été réalisée avec le Mastercycler ep Realplex2 (Eppendorf, Hambourg, Allemagne). Toutes les valeurs ont été normalisées par la GAPDH. Les séquences des oligos utilisés sont : ALP F 5'-GGCCAGCTACACCACAACA-3' / ALP R 5'-[…] -3' / OCN F 5'-AGACTCCGGCGCTACCTT -3' / OCN R 5'-[…]-3'/ COL1 F 5'-[…]-3' / COL1 R 5'-[…]-3' / GAPDH F 5'-[…]-3' / GAPDH R 5'-[…]-3'"}, "[1]": {"test_system": "perte osseuse induite par ovariectomie", "test": "Ovariectomy-induced bone loss: trabecular bone mineral density of femur (CT)", "type": "in vivo, souris C57BL/6J", "settings": "OVX mice, Fisétine 25mg/kg daily by gavage; OVX without fisetin -15%", "method": "Tout au long de l'étude, les animaux ont été logés dans un environnement contrôlé (12:12 h cycle lumière-obscurité, 20-22 ° C, 50-60% d'humidité relative, 1 souris par cage en plastique avec un accès libre à l'eau. Les souris C57BL/6J ont été livrées 2 semaines avant l'étude pour l'acclimatation à notre environnement sous régime standard semi-purifié. Pour toutes les expériences, les souris de 8 semaines (n=12/groupe) ont été gavées avec le véhicule (1% d'éthanol, 0,2% hydroxypropylcellulose dans de l'eau distillée) ou avec la fisétine (5 à 50 mg/kg dans le véhicule) pendant une semaine. Ensuite, pour l'expérience OVX, les souris ont été pseudo-opérées ou ovariectomisées bilatéralement et ont reçu quotidiennement par gavage le véhicule ou la fisétine pendant 4 semaines. A la fin de l'expérimentation, le sérum, les cornes utérines, les tibias et les fémurs ont été recueillis pour analyse. Pour l'expérience de perte osseuse induite par LPS, le véhicule (PBS) ou le LPS (sérotype 026: B6, 25mg/kg) ont été injectés par voie sous-cutanée au niveau de la calotte crânienne, une fois par semaine pendant 3 semaines sous anesthésie. Durant ces 3 semaines, les souris ont reçu soit le véhicule (1% d'éthanol, 0,2% hydroxypropylcellulose dans de l'eau distillée) soit la fisétine quotidiennement par gavage. […]"}, "[2]": {"test_system": "préostéoblastes primaires", "test": "Mineralisation test (alizarin red staining of mineralised nodules)", "type": "cell-based, rats Wistar", "settings": "Rattus norvegicus, 408 h, 17 days of culture, read-out: minéralisation (nodules minéralisés) par rapport à la condition « AA+βGP seuls »", "description": "as §1\nLes préostéoblastes primaires ont été ensemencés à 1,5 * 10^5 cellules par puit dans des plaques 12 puits traitées au collagène. Trente-six heures plus tard, les cellules ont été prétraitées avec du DMSO comme témoin ou de la fisétine (1 à 5 µM) pendant 12 heures, puis induites à se différentier avec 25 µg/ml d'acide ascorbique et 5 mM de bêta-glycérophosphate en présence de DMSO ou de fisétine (1 à 5 µM). Après 17 jours de culture avec un changement des milieux tous les 2 jours, les cellules ont été fixées avec de l'éthanol à 70% et les dépôts de calcium ont été colorés avec une solution à 40 mM d'alizarine rouge (pH 4,2). La zone et l'intensité des nodules ont été quantifiées en utilisant le logiciel ImageJ (http://rsb.info.nih.gov/ij/)."}}, "note": "Like-named read-outs stand apart in the source and are kept apart here."}
{"smiles": "O=c1c(O)c(-c2ccc(O)c(O)c2)oc2cc(O)ccc12", "note": "[Fisétine, 3,3',4',7-tétrahydroxyflavone]", "values": [{"measurement": "activation at 1 µM", "setting": "ostéocalcine; 168 h, AA+βGP+Fisétine 1 µM, J7, read-out: expression de l'ostéocalcine par rapport à la condition « AA+βGP seuls »", "result": 63, "unit": "%"}, {"measurement": "activation at 5 µM", "setting": "ostéocalcine; 168 h, J7, read-out: expression de l'ostéocalcine par rapport à la condition « AA+βGP seuls »", "result": 177, "unit": "%"}, {"measurement": "activation at 1 µM", "setting": "ostéocalcine; 336 h, AA+βGP+Fisétine 1µM, J14, read-out: expression de l'ostéocalcine par rapport à la condition « AA+βGP seuls »", "result": 63, "unit": "%"}, {"measurement": "activation at 5 µM", "setting": "ostéocalcine; 336 h, J14, read-out: expression de l'ostéocalcine par rapport à la condition « AA+βGP seuls »", "result": 131, "unit": "%"}, {"measurement": "densité minérale osseuse (DMO trabéculaire) par rapport à la condition témoin « SH »", "setting": "[1]", "result": -4, "unit": "%"}, {"measurement": "activation at 1 µM", "setting": "[2]; AA+βGP+Fisétine 1µM", "result": 62, "unit": "%"}, {"measurement": "activation at 5 µM", "setting": "[2]; AA+βGP+Fisétine 5µM", "result": 169, "unit": "%"}, {"measurement": "activation at 2.5 µM", "setting": "[2]; AA+βGP+Fisétine 2,5µM", "result": 105, "unit": "%"}]}
